The RepoRT retention time repository

Test: Waters ACQUITY UPLC BEH C18, 100 × 2.1 mm, 1.7 µm, 40 °C, 0.3 to 0.4 mL/min, estimated dead time 0.63 min; A: water + 0.1% formic acid; B: methanol + 0.1% formic acid; gradient (min/%B) 0/0.5 0.1/0.5 10/80 10.1/99.5 12/99.5
Details: stereoisomer not certain

SMILES | LC retention time
CC(C)=CCCC(C)(OC1OC(COC2OC(CO)C(O)C2O)C(O)C(O)C1O)C1CCC2(C)C1C(O)CC1C3(C)CCC(OC4OC(CO)C(O)C(O)C4OC4OC(CO)C(O)C(O)C4O)C(C)(C)C3CCC12C (configuration not stated) | 6.01 min
CC1=C(C)C(=O)OC(C(C)C2(O)CCC3C4C5OC5C5(O)CC=CC(=O)C5(C)C4CCC32C)C1 (configuration not stated) | 6.82 min
NC(CCCCNC(=O)C=Cc1ccc(O)c(O)c1)C(=O)O (configuration not stated) | 2.61 min
CCCCCCCCCCCCOS(=O)(=O)O | 8.65 min
COc1cc(C(C)=O)cc(OC)c1O | 4.31 min
COc1cc(-c2cc(=O)c3c(O)cc(OC4OC(COC(=O)CC(=O)O)C(O)C(O)C4O)cc3o2)cc(OC)c1O (configuration not stated) | 4.91 min
CC1(C)CC(=O)C2(C)CCC3(C)C(=CCC4C5(C)CCC(OC6OC(C(=O)O)C(O)C(O)C6OC6OC(CO)C(O)C(O)C6OC6OC(CO)C(O)C(O)C6O)C(C)(CO)C5CCC43C)C2C1 (configuration not stated) | 7.49 min
COc1ccc2c(c1)OC(OC1OC(CO)C(O)C(O)C1O)C(=O)N2O (configuration not stated) | 3.5 min
COc1cc(C=CC(=O)OC2C(O)CC(O)(C(=O)O)CC2O)ccc1O (configuration not stated) | 3.74 min
COc1ccc2cc1Oc1ccc(cc1)CC1c3cc(c(OC)cc3CCN1C)Oc1c(OC)c(OC)c(OC)c3c1C(C2)N(C)CC3 (configuration not stated) | 4.41 min
O=C(O)c1cc(O)c(O)c(O)c1 | 2.04 min
C=CC1C(OC2OC(CO)C(O)C(O)C2O)OC=C(C(=O)OC)C1CC=O (configuration not stated) | 3.84 min
CC1=C2C(=O)C3C(CC=C4CC(OC5OC(CO)C(O)C(O)C5O)CCC43C)C2CCC12OC1CC(C)CNC1C2C (configuration not stated) | 4.01 min
COc1c2c(cc3c(-c4ccc5c(c4)OCO5)c4c(cc13)C(=O)OC4)OCO2 | 8.93 min
COc1cc(-c2cc(=O)c3c(O)cc(OC4OC(C(=O)O)C(O)C(O)C4O)cc3o2)cc(OC)c1OC1OC(CO)C(O)C(O)C1O (configuration not stated) | 4.05 min
CC1CNC2C(C)C3C(CC4C5CCC6CC(OC7OC(CO)C(OC8OC(CO)C(O)C(OC9OCC(O)C(O)C9O)C8OC8OC(CO)C(O)C(O)C8O)C(O)C7O)CCC6(C)C5CCC43C)OC2(O)C1 (configuration not stated) | 4.02 min
C=CCC(=NOS(=O)(=O)O)SC1OC(CO)C(O)C(O)C1O (configuration not stated) | 1.77 min
O=C(O)C1OC(Oc2ccc(-c3oc4cc(O)c(C5OC(CO)C(O)C(O)C5O)c(O)c4c(=O)c3C3OC(CO)C(O)C(O)C3O)cc2)C(O)C(O)C1O (configuration not stated) | 4.68 min
CC1OC(Oc2cc(O)c3c(=O)c(OC4OC(CO)C(O)C(O)C4O)c(-c4ccc(O)cc4)oc3c2)C(O)C(O)C1O (configuration not stated) | 3.7 min
COc1cc2cc3c4cc(OC)c(OC)cc4cc[n+]3c(C)c2cc1OC | 5.27 min
COc1cc2c(cc1OC)C(C)=NCC2 | 2.93 min
CC1OC(OC2C(OC3C(OC4CCC5(C)C(CCC6(C)C5CC=C5C7CC(C)(C)CC(=O)C7(C)CCC56C)C4(C)CO)OC(C(=O)O)C(O)C3O)OC(CO)C(O)C2O)C(O)C(O)C1O (configuration not stated) | 7.62 min
CC(C)=CCCC(C)(OC1OC(CO)C(O)C(O)C1O)C1CCC2(C)C1C(O)CC1C3(C)CCC(O)C(C)(C)C3C(O)CC12C (configuration not stated) | 6.59 min
COc1cc(C2c3cc4c(cc3C(O)C3COC(=O)C23)OCO4)cc(OC)c1OC (configuration not stated) | 6.26 min
CC1OC(Oc2c(-c3ccc(O)c(O)c3)oc3cc(O)cc(O)c3c2=O)C(OC2OC(COC(=O)C=Cc3ccc(O)cc3)C(O)C(O)C2O)C(O)C1O (configuration not stated) | 4.67 min

SMILES | LC retention time
CC1(C)C=CC2(C)CCC3(C)C(=CCC4C5(C)CCC(O)C(C)(CO)C5CCC43C)C2C1 (configuration not stated) | 10.4 min
CC1OC(OC2CC(C)(C)CC3C4=CCC5C6(C)CCC(OC7OC(C(=O)O)C(O)C(O)C7OC7OC(CO)C(O)C(O)C7OC7OCC(O)C(O)C7O)C(C)(CO)C6CCC5(C)C4(C)CCC23C)C(O)C(O)C1O (configuration not stated) | 5.56 min
COc1cc(-c2[o+]c3cc(O)cc(OC4OC(CO)C(O)C(O)C4O)c3cc2OC2OC(COC3OC(C)C(OC(=O)C=Cc4ccc(O)cc4)C(O)C3O)C(O)C(O)C2O)cc(O)c1O (configuration not stated) | 3.76 min
COC(=O)CC(OC(=O)C=Cc1cc(OC)c(O)c(OC)c1)C(=O)OC (configuration not stated) | 3.28 min
COc1ccc(-c2cc(=O)c3c(O)cc(OC4OC(COC5OC(C)C(O)C(O)C5O)C(O)C(O)C4O)cc3o2)cc1 (configuration not stated) | 5.19 min
CC(C)=CCCC(C)(O)C1CCC2(C)C1C(O)CC1C3(C)CCC(O)C(C)(C)C3C(OC3OC(CO)C(O)C(O)C3OC3OC(CO)C(O)C(O)C3O)CC12C (configuration not stated) | 5.94 min
CC1OC(OC2C(OC3C(OC4CCC5(C)C(CCC6(C)C5CC=C5C7CC(C)(C)CC(O)C7(C)CCC56C)C4(C)CO)OC(C(=O)O)C(O)C3O)OC(C(=O)O)C(O)C2O)C(O)C(O)C1O (configuration not stated) | 7.06 min
O=c1ccn(C2OC(CO)C(O)C2O)c(=O)[nH]1 (configuration not stated) | 1.8 min
CC(CCC1(O)OC2CC3C4CC=C5CC(OC6OC(COC7OC(C)C(O)C(O)C7OC7OC(C)C(O)C(O)C7OC7OC(C)C(O)C(O)C7O)C(O)C(O)C6O)CCC5(C)C4CCC3(C)C2C1C)COC1OC(CO)C(O)C(O)C1O (configuration not stated) | 5.1 min
COc1ccc2c(c1)OC(OC1OC(CO)C(O)C(O)C1O)C(=O)N2OC (configuration not stated) | 4.1 min
CC1OC(OC2C(OC3C(OC4CCC5(C)C(CCC6(C)C5CC=C5C7CC(C)(C)CC(OC8OC(C)C(O)C(O)C8O)C7(C)CCC56C)C4(C)CO)OC(C(=O)O)C(O)C3O)OCC(O)C2O)C(O)C(O)C1O (configuration not stated) | 5.86 min
C=CC1CN2CCc3c([nH]c4ccccc34)C2CC1C(=COC)C(=O)OC (configuration not stated) | 5.68 min
CC(C)CC(NC(=O)CN)C(=O)O (configuration not stated) | 2.5 min
CCCCCC=CCC=CCC=CCC=CCCCC(=O)O | 7.39 min
COC(=O)C1=COC(C)C2CN3CCC4(C(=O)Nc5c4ccc(OC)c5OC)C3CC12 (configuration not stated) | 4.48 min
Cc1nccc2c1[nH]c1ccccc12 | 3.7 min
CC1CCC2C(C)C3C(CC4C5C(=O)C=C6CC(OC7OC(CO)C(OC8OC(C)C(O)C(O)C8O)C(O)C7OC7OC(C)C(O)C(O)C7O)CCC6(C)C5CCC43C)N2C1 (configuration not stated) | 4.52 min
O=C(O)CC(=O)OCC1OC(Oc2cc(O)c3c(=O)cc(-c4ccc(O)c(O)c4)oc3c2)C(O)C(O)C1O (configuration not stated) | 4.59 min
COC(=O)C1(O)CC23CCCN4CCC5(c6ccc7c(c6NC15CC2)OCO7)C43 (configuration not stated) | 3.61 min
COc1cc(C=CC(=O)NCCCCN=C(N)N)cc(OC)c1O | 3.27 min
CCC(C)C(N)C(=O)NC(CCC(=O)O)C(=O)O (configuration not stated) | 1.98 min
COc1ccc(-c2cc(=O)c3c(O)cc(OC4OC(CO)C(O)C(O)C4OC4OC(C)C(O)C(O)C4O)cc3o2)cc1 (configuration not stated) | 5.26 min
CC1OC(OC2C(O)C(CO)OC(Oc3c(-c4ccc(O)cc4)oc4cc(O)cc(O)c4c3=O)C2O)C(O)C(O)C1O (configuration not stated) | 4.15 min
OCC1OC(Oc2cc3c(OC4OC(CO)C(O)C(O)C4O)cc(O)cc3[o+]c2-c2ccc(O)c(O)c2)C(O)C(O)C1O (configuration not stated) | 2.5 min
COc1cc2ccc(=O)oc2c(OC)c1O | 4.28 min

The remaining lines, values ahead:

LC retention time | SMILES
5.97 min | O=c1oc2cc(O)ccc2c2oc3cc(O)ccc3c12
4.35 min | COC(=O)C1C(O)CCC2CN3CCc4c([nH]c5ccccc45)C3CC21 (configuration not stated)
5.07 min | C=CC1C(OC2OC(CO)C(O)C(O)C2O)OC(O)=C2C(=O)N3CCc4c([nH]c5ccccc45)C3=CC21 (configuration not stated)
5.43 min | COc1ccc(-c2coc3cc(OC4OC(COC(=O)CC(=O)O)C(O)C(O)C4O)ccc3c2=O)cc1 (configuration not stated)
4.52 min | O=C1CC(c2ccc(O)cc2)Oc2cc(OC3OC(CO)C(O)C(O)C3O)cc(O)c21 (configuration not stated)
7.58 min | CC(C)=CCc1c(O)cc2c(c1O)C(=O)CC(c1ccccc1)O2 (configuration not stated)
4.3 min | COc1cc(C=CC(=O)NC=Cc2ccc(O)cc2)ccc1O
2.84 min | CC(N)C(=O)NC(Cc1ccccc1)C(=O)O (configuration not stated)
1.62 min | CN1CCCC1c1cccnc1 (configuration not stated)
9.02 min | O=C(C=Cc1ccccc1)c1ccccc1
5.23 min | c1ccc2c3ccn4cc5c(cc4c-3nc2c1)CCCC5
3.96 min | COc1ccc2cc1Oc1ccc(cc1)CC1=NCCc3cc(OC)c(cc31)Oc1c(OC)c(OC)c(O)c3c1C(C2)N(C)CC3 (configuration not stated)
5.13 min | COc1cc(C=CC(=O)NCCc2ccc(O)cc2)ccc1O
3.04 min | NC(CCC(=O)NC(Cc1ccccc1)C(=O)O)C(=O)O (configuration not stated)
5.27 min | C=CC1C(OC2OC(CO)C(O)C(O)C2O)OC=C2C(=O)N3Cc4cc5ccccc5nc4C3CC21 (configuration not stated)
8.5 min | O=C1CC(c2ccccc2)Oc2ccccc21 (configuration not stated)
5.58 min | COc1cc(O)c2c(c1)OC(c1ccc(O)c(-c3c(O)cc(O)c4c(=O)cc(-c5ccc(O)cc5)oc34)c1)CC2=O (configuration not stated)
4.08 min | COc1cc2oc(-c3ccc(O)cc3)cc(=O)c2c(O)c1C1OC(CO)C(O)C(O)C1O (configuration not stated)
7.45 min | O=C1CC(c2ccccc2O)Oc2ccccc21 (configuration not stated)
9.45 min | CC(C)=CCc1cc(C2COc3cc(O)c(CC=C(C)C)c(O)c3C2=O)ccc1O (configuration not stated)
5.32 min | O=C(C=Cc1ccc(O)cc1)OC1C(Oc2c(-c3ccc(O)cc3)oc3cc(O)cc(O)c3c2=O)OC(CO)C(O)C1O (configuration not stated)
4.38 min | CC1OC(OC2C(Oc3cc(O)c4c(c3)OC(c3ccc(O)cc3)CC4=O)OC(CO)C(O)C2O)C(O)C(O)C1O (configuration not stated)
6.75 min | COc1cccc(-c2oc3cc(OC)ccc3c(=O)c2O)c1
3.92 min | COC(=O)C1CC23CCCN4CCC5(c6ccccc6NC15CC2)C43 (configuration not stated)
3.08 min | O=C(C=Cc1ccc(O)cc1)OC1CC(O)(C(=O)O)CC(O)C1O (configuration not stated)
4.09 min | O=C1CC(c2ccc(O)c(O)c2)Oc2cc(OC3OC(CO)C(O)C(O)C3O)cc(O)c21 (configuration not stated)
7.04 min | CC(C)=CCc1c(O)cc(O)c2c1OCC(c1ccc(O)cc1O)C2=O (configuration not stated)
